Results from patent US8092974B2, “Production method of toner for developing electrostatic image” (Zeon Corporation, priority 2006, dated 2012).

Test: Average number of small diameter microparticles per colored resin particle (SEM count after polymerization)
Conditions: aqueous dispersion after polymerization process; SEM 5,000 magnification, 25 particles
Source text: The average number of small diameter microparticles per colored resin particle is a value calculated in such a manner that aqueous dispersion containing colored resin particles after polymerization process is collected and prepared to be a sample for measurement with a scanning electron microscopy (SEM); the prepared sample is photographed at 5,000 magnification in five fields of view by means of the scanning electron microscopy; five colored resin particles are randomly selected in each image; the number of small diameter microparticles observed on the surface of 25 colored resin particles in total is counted; and the average number of small microparticles per colored resin is calculated therefrom.
The number of small diameter microparticles per colored resin particle can be measured by means of a commercially available scanning electron microscopy. For example, it can be measured by means of a field emission scanning electron microscopy (product name: S-4700; manufactured by: Hitachi, Ltd.). […]
The sample was randomly photographed in five fields of view, and five colored resin particles were randomly selected in each image to count the number of small diameter microparticles observed on the surface of 25 colored resin particles in total. The average number of small diameter microparticles per colored resin particle was calculated therefrom.

Oc1ccc(O)cc1 [A, Hydroquinone]
Average number of small diameter microparticles per colored resin particle: weak
